According to PMC11324666, “Two novel in vitro assays to screen chemicals for their capacity to inhibit thyroid hormone transmembrane transporter proteins OATP1C1 and OAT4” (Archives of Toxicology, 2024):
Like-named read-outs stand apart in the source and are kept apart here.

How the values were obtained:
OATP1C1 [1] = target: T1, OATP1C1 (Homo sapiens, UniProt Q9NYB5); test: CHO-K1 OATP1C1 TH uptake assay with 125I-T4 tracer; type: cell-based
T1 construct: host or cells: CHO-K1
T1 sequence (Q9NYB5 1-712): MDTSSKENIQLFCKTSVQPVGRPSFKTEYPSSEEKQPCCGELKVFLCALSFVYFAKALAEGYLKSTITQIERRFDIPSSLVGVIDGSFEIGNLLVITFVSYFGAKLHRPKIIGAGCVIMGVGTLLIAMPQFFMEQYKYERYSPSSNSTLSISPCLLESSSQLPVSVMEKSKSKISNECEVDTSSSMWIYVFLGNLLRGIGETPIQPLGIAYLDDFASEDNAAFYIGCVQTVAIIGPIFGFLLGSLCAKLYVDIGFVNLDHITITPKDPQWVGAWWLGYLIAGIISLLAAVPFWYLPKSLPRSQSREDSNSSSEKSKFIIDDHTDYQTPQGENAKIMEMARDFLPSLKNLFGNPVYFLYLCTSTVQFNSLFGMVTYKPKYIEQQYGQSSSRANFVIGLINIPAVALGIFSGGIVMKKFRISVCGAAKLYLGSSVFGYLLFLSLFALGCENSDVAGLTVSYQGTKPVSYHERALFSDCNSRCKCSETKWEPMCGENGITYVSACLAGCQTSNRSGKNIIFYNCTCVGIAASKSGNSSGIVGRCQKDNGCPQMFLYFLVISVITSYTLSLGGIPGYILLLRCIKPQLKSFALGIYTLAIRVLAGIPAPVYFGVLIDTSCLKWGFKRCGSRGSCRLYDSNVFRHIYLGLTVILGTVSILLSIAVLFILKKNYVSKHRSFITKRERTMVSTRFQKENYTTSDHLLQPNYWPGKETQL
Procedure: (§1) MDCK-OAT4 and MDCK-DEST cells were cultured in DMEM:F12 (L-glutamine, 15 mM HEPES) (Gibco) supplemented with (100 µg/mL penicillin + 100 µg/mL streptomycin), 10% fetal calf serum (Gibco) and 2 µg/mL blasticidin (Sigma). CHO-K1 OATP1C1 or WT cells were cultured in F12 nutrient mix (Gibco) supplemented with (100 µg/mL penicillin + 100 µg/mL streptomycin), 10% fetal calf serum (Gibco) and […] G418 (Sigma). All cell cultures were incubated at 37 °C with 5% CO2 saturation until 80% confluency. MDCK-OAT4 and MDCK-DEST cells were seeded in 96 wells plate at a density of 4 × 10^5 cells in 100 µL medium per well and incubated for 24 h before the start of the MDCK-OAT4 TH uptake assay. CHO-K1 OATP1C1 and WT cells were seeded in 96 wells plate at a density of 3 × 10^5 cells in 100 µL medium per well 72 h before the CHO-K1 OATP1C1 TH uptake assay. Medium from CHO-K1 OATP1C1 or WT assay plates was changed to serum-free F12 medium containing 5 mM sodium-butyrate 24 h before start of the CHO-K1 OATP1C1 TH uptake assay to increase transfected expression of SV-40 promotor plasmids.
(§2) Subsequently 10 µL of a tenfold stock of test compound in uptake buffer (solvent concentration 1% v/v) was added to each well. […] Cells were exposed at 37 °C for 20 min (MDCK-OAT4) or 30 min (CHO-K1 OATP1C1), unless stated differently. After exposure, cells were immediately washed with ice-cold PBS supplemented with 0.1% bovine serum albumin (BSA). Subsequently, cells were lysed in 50 µL of 0.1 M NaOH under continuous shaking at room temperature. After 20 min, cell lysates were manually transferred into separate 5 mL polypropylene tubes. One tube was also prepared with 10 µL of the T4 tracer solution. Radioactivity was measured in a Wizard^2 gamma counter (Perkin Elmer).
(§3) For the CHO-K1 OATP1C1 TH uptake assay total of 29 chemicals (Table 1) were selected for the EDC screening based on available literature data. […] The same chemicals were selected for the MDCK-OAT4 TH uptake assay, with the exception of BPF, VRP and TCS. […] The THTMT TH uptake assay was then performed as described earlier. […] A concentration of 100 µM ICG was used as a reference chemical for OATP1C1 and 100 µM LESI for OAT4. At least three independent experiments were performed for each chemical.
(§4) Raw values were normalized to the total amount of radioactivity in the T4 tracer solution. These values were expressed as a percentage of total radioactivity added (or uptake percentage) and used for all further data analysis. Statistically significant differences between the T4 uptake of transfected and wild type cells, in the presence or absence of inhibitor, were determined by two-way ANOVA (α = 5%, two-sided). […] In brief, uptake values were normalized to the median response of the vehicle and positive controls for each plate. […] Statistical analysis were performed using GraphPad Prism version 8 for Windows (GraphPad Software, San Diego, California USA) and SAS 9.3 (SAS Institute, Cary NC).

CHO-K1 OATP1C1 cells = settings: for cytotoxic effects: at concentrations of the uptake assay, Figure S1; for Cytotoxicity IC10: concentration that inhibits cell viability by 10%, CHO-K1 OATP1C1 cells, 30 min exposure
Procedure: (§5) Cell viability was assessed through the quantitation of ATP present in cells using the commercially available CellTiter-Glo® luminescent cell viability assay and performed according to the manufacturer’s instruction (Promega, Leiden, the Netherlands). Briefly, cells were seeded as described earlier in opaque-walled clear-bottom 96 well plates. On the day of the experiment, each well was washed with 200 µL phosphate buffered saline (PBS) and exposed to 80 µL of uptake buffer, 10 µL of a tenfold stock of test compound solved in uptake buffer or control and 10 µL of T4 (final concentration 10 nM). 0.1% DMSO was used as a solvent control, while 10% DMSO was used as a positive control. After exposure for the indicated times similar to THTMT TH uptake assay, cells were immediately washed with ice-cold PBS + 0.1%BSA and exposed to 100 µL of the CellTiter-Glo® Reagent. Plates were then shaken on an orbital shaker for 2 min and left to incubate at room temperature for 10 min. Luminescence was measured on a BioTek Cytation 5 microplate reader. […] Each individual experiment was repeated at least twice and contained three technical replicates of each control and concentration tested.
Figure S1. […] Blue dots indicate the plate medians from three or four independent experiments, all control and chemical concentrations were tested in triplicates per plate.

OAT4 = target: T2, OAT4 (Homo sapiens, UniProt Q9NSA0); test: MDCK-OAT4 TH uptake assay with 125I-T4 tracer; type: cell-based; settings: 10 nM T4, 20 min; for T4 uptake inhibition BMC20 (M), [CI]: concentration that inhibits 125I-T4 uptake by 20%, brackets = 95% CI; for 125I-T4 uptake compared to the vehicle control (range finding): single concentration 10 or 100 µM, below 80% = positive hit
T2 construct: V5 (from pLenti6/V5-DEST); expressed in transfected cells; host or cells: MDCK-1 (lentiviral transduction, blasticidin selection)
T2 sequence (Q9NSA0 1-550): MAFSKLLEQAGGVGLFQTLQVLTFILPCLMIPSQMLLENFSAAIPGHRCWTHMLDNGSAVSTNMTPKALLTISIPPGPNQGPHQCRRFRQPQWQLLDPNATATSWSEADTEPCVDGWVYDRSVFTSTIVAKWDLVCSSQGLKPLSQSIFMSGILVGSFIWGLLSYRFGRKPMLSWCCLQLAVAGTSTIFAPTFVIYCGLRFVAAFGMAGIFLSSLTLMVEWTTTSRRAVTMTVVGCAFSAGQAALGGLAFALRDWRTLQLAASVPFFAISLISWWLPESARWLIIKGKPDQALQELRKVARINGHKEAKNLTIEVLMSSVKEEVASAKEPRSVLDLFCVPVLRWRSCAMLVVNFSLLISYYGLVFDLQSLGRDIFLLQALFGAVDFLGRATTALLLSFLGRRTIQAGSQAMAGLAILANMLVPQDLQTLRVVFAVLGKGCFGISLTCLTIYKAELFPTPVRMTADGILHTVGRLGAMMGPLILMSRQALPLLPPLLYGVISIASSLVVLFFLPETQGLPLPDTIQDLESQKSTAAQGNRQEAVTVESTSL
Procedure: Subsequently OAT4 in pENTR™/D-TOPO® Vector was shuffled into the pLenti6/V5-DEST vector (Thermo Fisher) using Gateway™ LR Clonase™ II Enzyme mix (Thermo Fisher) according to the manufacture’s protocol.
To generate an OAT4 stable cell line, MDCK-1 cells were plated in 12-well plates with full growth medium and transduced with fresh viral supernatants in the absence of antibiotics in medium. After 2 days, MDCK-1 cells transduced with OAT4 (MDCK-OAT4) or empty vector (MDCK-DEST) were selected in full growth medium supplemented with 2 µg/mL blasticidin and further maintained under blasticidin selection.
as §1, §2
as §3, with “chemical. Each individual experiment contained three technical replicates of each control and concentration tested.” for “chemical.”
as §4

MDCK-OAT4 cells = test: CellTiter-Glo luminescent cell viability assay in MDCK-OAT4 cells; settings: concentration that inhibits cell viability by 10%; MDCK-OAT4 cells, 20 min exposure
Procedure: as §5
Figure S2. […] Blue dots indicate the plate medians from three or four independent experiments, all control and chemical concentrations were tested in triplicates per plate. The black line indicates the best-fit concentrations response curve, the dotted line the corresponding 95% confidence interval.

oatp1c1 [2] = system: oatp1c1; set-up: method as in Westholm et al. (2009); settings: T4 1 nM; ref Westholm et al. (2009); read-out: IC50 of T4 transmembrane transport inhibition; cited from earlier work
[3] = concentration that inhibits 125I-T4 uptake by 20%, 10 nM T4, 30 min, brackets = 95% CI

Compound: Oc1cc(Cl)ccc1Oc1ccc(Cl)cc1Cl [Triclosan]
- T4 uptake inhibition BMC20 (M), [CI] (OATP1C1 [1]): 2.30E−06 [1.38E−06; 3.83E−06] M
- cytotoxic effects (CHO-K1 OATP1C1 cells): confounded by cytotoxic effects
- Cytotoxicity IC10 (CHO-K1 OATP1C1 cells): 0.378 µM

Compound: β-Estradiol-3-sulfate [ß-Estrone-3-sulfate, reference compound]
- T4 uptake inhibition BMC20 (M), [CI] (OAT4): 1.55E−06 [5.32E−07; 4.51E−06] M
- 125I-T4 uptake compared to the vehicle control (range finding) (OAT4): below 80%

Compound: NC(Cc1cc(I)c(Oc2cc(I)c(O)c(I)c2)c(I)c1)C(=O)O (stereo not drawn) [T4, Thyroxine, reference compound]
- uptake of 125I-T4 with excess of unlabeled T4 (OATP1C1 [1]; 1 µM unlabeled T4): quenched the uptake

Compound: O=S(=O)(c1ccc(O)cc1)c1ccc(O)cc1 [Bisphenol S, Bisphenol-S]
- 125I-T4 uptake compared to the vehicle control (range finding) (OAT4): ≥ 80%

Compound: Oc1ccc(C2(c3ccc(O)cc3)CCCCC2)cc1 [Bisphenol Z, Bisphenol-Z]
- Cytotoxicity IC10 (CHO-K1 OATP1C1 cells): > 100 µM

Compound: O=C(O)CSc1nnc(Br)n1-c1ccc(C2CC2)c2ccccc12 [Lesinurad, reference compound]
- Cytotoxicity IC10 (MDCK-OAT4 cells): > 100 µM
- T4 uptake inhibition BMC20 (M), [CI] (OATP1C1 [1]; [3]): 4.34E−07 [1.97E−07; 9.56E−07] M
- Cytotoxicity IC10 (CHO-K1 OATP1C1 cells): > 100 µM

Compound: O=C(O)Cc1ccccc1Nc1c(Cl)cccc1Cl [Diclofenac, reference compound]
- T4 uptake inhibition BMC20 (M), [CI] (OAT4): 3.22E−06 [6.39E−07; 1.62E−05] M
- IC50 (oatp1c1 [2]): 4 µM

Compound: CC(C)(c1ccc(O)cc1)c1ccc(O)cc1 [Bisphenol A, Bisphenol-A]
- T4 uptake inhibition BMC20 (M), [CI] (OATP1C1 [1]; [3]): 1.90E−05 [1.28E−05; 2.83E−05] M
- cytotoxic effects (CHO-K1 OATP1C1 cells): confounded by cytotoxic effects
- Cytotoxicity IC10 (CHO-K1 OATP1C1 cells): 4.34 µM

Compound: [CH3][Hg][Cl] [MeHg, Methyl mercury]
- 125I-T4 uptake compared to the vehicle control (range finding) (OATP1C1 [1]; single concentration 10 or 100 µM, 10 nM T4, 30 min, below 80% = positive hit): ≥ 80%
- 125I-T4 uptake compared to the vehicle control (range finding) (OAT4): ≥ 80%
